Read-outs that look alike come from different tables or passages of the source.
System: HCV replicon in HUH-7 cells
Experiment: HCV replicon FRET assay
Assay type: cell-based, Hepatitis C virus (strain 1b)
Details: Hepatitis C virus
Excerpt: An HCV replicon whole cell system was established as described by Lohmann, V. et al., Science, 285(5424):110-113 (1999). This system enabled us to evaluate the effects of our HCV Protease compounds on HCV RNA replication. Briefly, using the HCV strain 1b sequence described in the Lohmann paper (Accession number: AJ238799), an HCV cDNA was synthesized by Operon Technologies, Inc. (Alameda, Calif.), and the full-length replicon was then assembled in plasmid pGem9zf(+) (Promega, Madison, Wis.) using standard molecular biology techniques. The replicon consists of (i) the HCV 5′ UTR fused to the first 12 amino acids of the capsid protein, (ii) the neomycin phosphotransferase gene (neo), (iii) the IRES from encephalomyocarditis virus (EMCV), and (iv) HCV NS3 to NS5B genes and the HCV 3′ UTR. Plasmid DNAs were linearized with ScaI and RNA transcripts were synthesized in vitro using the T7 MegaScript transcription kit (Ambion, Austin, Tex.) according to manufacturer's directions. In vitro transcripts of the cDNA were transfected into the human hepatoma cell line, HUH-7. […] Resulting cell lines were characterized for positive and negative strand RNA production and protein production over time.
The HCV replicon FRET assay was developed to monitor the inhibitory effects of compounds described in the disclosure on HCV viral replication. HUH-7 cells, constitutively expressing the HCV replicon, were grown in Dulbecco's Modified Eagle Media (DMEM) (Gibco-BRL) containing 10% Fetal calf serum (FCS) (Sigma) and 1 mg/ml G418 (Gibco-BRL). Cells were seeded the night before (1.5×10^4 cells/well) in 96-well tissue-culture sterile plates. Compound and no compound controls were prepared in DMEM containing 4% FCS, 1:100 Penicillin/Streptomysin (Gibco-BRL), 1:100 L-glutamine and 5% DMSO in the dilution plate (0.5% DMSO final concentration in the assay). Compound/DMSO mixes were added to the cells and incubated for 4 days at 37° C. After 4 days, cells were first assessed for cytotoxicity using alamar Blue (Trek Diagnostic Systems) for a CC50 reading. The toxicity of compound (CC50) was determined by adding 1/10th volume of alamar Blue to the media incubating the cells. After 4 h, the fluorescence signal from each well was read, with an excitation wavelength at 530 nm and an emission wavelength of 580 nm, using the CYTOFLUOR® Series 4000 (Perspective Biosystems). Plates were then rinsed thoroughly with Phosphate-Buffered Saline (PBS) (3 times 150 μl). The cells were lysed with 25 μl of a lysis assay reagent containing an HCV protease substrate (5× cell Luciferase cell culture lysis reagent (PROMEGA® #E153A) diluted to 1× with distilled water, NaCl added to 150 mM final, the FRET peptide substrate (as described for the enzyme assay above) diluted to 10 μM final from a 2 mM stock in 100% DMSO. The plate was then placed into the CYTOFLUOR® 4000 instrument which had been set to 340 nm excitation/490 nm emission, automatic mode for 21 cycles and the plate read in a kinetic mode. EC50 determinations were carried out as described for the IC50 determinations.

`C=C[C@@H]1C[C@]1(NC(=O)[C@@H]1C[C@@](SCCCC)(c2ccc(-c3ccccc3)cc2)CN1C(=O)[C@@H](NC(=O)OC(C)(C)C)C(C)(C)C)C(=O)NS(=O)(=O)C1CC1` [Example 1, tert-butyl (S)-1-((2S,4R)-4-(biphenyl-4-yl)-4-(butylthio)-2-((1R,2S)-1-(cyclopropylsulfonylcarbamoyl)-2-vinylcyclopropylcarbamoyl)pyrrolidin-1-yl)-3,3-dimethyl-1-oxobutan-2-ylcarbamate] showed an EC50 (96 h, HUH-7 replicon cells, 4 days, read-out: EC50 value in the replicon FRET assay) of 7.3 nM and an EC50 (Huh-7) of 7.2 to 22 nM.
